Test results as given in ChEMBL document CHEMBL1681676, “The design and synthesis of novel N-hydroxyformamide inhibitors of ADAM-TS4 for the treatment of osteoarthritis” (Bioorg Med Chem Lett, 2011).
pIC50: −log10 of the molar value.

What was measured:
[1] = biological target: 72 kDa type IV collagenase (Homo sapiens, UniProt P08253); assay: Inhibition of recombinant human MMP2 assessed as substrate cleavage by measuring increase in fluorescence after 16 hrs
[2] = biological target: T1, A disintegrin and metalloproteinase with thrombospondin motifs 4 (Homo sapiens, UniProt O75173); assay: Inhibition of ADAMTS-4 assessed as substrate cleavage by measuring increase in fluorescence after 16 hrs
T1 sequence (O75173 whole entry): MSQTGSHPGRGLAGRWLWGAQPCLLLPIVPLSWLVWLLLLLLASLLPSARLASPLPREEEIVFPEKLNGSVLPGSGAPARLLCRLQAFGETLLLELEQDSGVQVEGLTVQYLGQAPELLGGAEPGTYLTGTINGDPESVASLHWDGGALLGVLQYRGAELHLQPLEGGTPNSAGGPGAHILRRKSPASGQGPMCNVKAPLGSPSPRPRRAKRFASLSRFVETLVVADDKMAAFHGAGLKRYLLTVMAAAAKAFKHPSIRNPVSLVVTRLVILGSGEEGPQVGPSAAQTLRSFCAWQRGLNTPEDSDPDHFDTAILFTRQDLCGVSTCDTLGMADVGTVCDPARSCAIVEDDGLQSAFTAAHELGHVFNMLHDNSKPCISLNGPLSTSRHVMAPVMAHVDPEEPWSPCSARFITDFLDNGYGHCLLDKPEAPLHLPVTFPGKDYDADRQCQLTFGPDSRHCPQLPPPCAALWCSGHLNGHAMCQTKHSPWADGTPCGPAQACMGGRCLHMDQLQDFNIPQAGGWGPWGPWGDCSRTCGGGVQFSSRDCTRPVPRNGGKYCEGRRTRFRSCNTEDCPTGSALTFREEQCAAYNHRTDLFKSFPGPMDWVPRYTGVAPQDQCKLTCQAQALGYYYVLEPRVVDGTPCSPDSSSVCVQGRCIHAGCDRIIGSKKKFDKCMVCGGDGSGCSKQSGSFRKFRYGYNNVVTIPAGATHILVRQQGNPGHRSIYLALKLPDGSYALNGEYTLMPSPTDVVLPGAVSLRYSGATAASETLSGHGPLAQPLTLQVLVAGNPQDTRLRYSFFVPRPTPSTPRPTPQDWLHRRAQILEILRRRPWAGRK

[3] = biological target: T2, Interstitial collagenase (Homo sapiens, UniProt P03956); assay: Inhibition of recombinant human MMP1 assessed as substrate cleavage by measuring increase in fluorescence after 16 hrs
T2 sequence (P03956 whole entry): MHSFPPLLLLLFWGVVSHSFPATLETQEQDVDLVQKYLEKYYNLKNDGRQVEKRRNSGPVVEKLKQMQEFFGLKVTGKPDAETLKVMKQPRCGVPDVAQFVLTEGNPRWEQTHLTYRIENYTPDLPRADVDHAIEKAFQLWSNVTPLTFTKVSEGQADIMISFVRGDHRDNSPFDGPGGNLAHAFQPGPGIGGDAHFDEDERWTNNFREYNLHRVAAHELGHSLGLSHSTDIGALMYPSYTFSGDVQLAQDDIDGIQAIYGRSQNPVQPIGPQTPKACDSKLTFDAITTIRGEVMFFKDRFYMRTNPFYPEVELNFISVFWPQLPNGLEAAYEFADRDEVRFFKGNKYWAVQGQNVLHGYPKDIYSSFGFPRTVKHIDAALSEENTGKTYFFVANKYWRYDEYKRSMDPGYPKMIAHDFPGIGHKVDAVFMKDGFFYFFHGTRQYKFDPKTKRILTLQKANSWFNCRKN

[4] = biological target: Collagenase 3 (Homo sapiens, UniProt P45452); assay: Inhibition of recombinant human MMP13 assessed as substrate cleavage by measuring increase in fluorescence after 16 hrs
[5] = biological target: Matrix metalloproteinase-14 (Homo sapiens, UniProt P50281); assay: Inhibition of recombinant human MMP14 assessed as substrate cleavage by measuring increase in fluorescence after 16 hrs
[6] = biological target: Disintegrin and metalloproteinase domain-containing protein 17 (Homo sapiens, UniProt P78536); assay: Inhibition of TACE assessed as substrate cleavage by measuring increase in fluorescence after 16 hrs
Disintegrin and metalloproteinase domain-containing protein 17, sequence (P78536 whole entry, the tested form may be a part): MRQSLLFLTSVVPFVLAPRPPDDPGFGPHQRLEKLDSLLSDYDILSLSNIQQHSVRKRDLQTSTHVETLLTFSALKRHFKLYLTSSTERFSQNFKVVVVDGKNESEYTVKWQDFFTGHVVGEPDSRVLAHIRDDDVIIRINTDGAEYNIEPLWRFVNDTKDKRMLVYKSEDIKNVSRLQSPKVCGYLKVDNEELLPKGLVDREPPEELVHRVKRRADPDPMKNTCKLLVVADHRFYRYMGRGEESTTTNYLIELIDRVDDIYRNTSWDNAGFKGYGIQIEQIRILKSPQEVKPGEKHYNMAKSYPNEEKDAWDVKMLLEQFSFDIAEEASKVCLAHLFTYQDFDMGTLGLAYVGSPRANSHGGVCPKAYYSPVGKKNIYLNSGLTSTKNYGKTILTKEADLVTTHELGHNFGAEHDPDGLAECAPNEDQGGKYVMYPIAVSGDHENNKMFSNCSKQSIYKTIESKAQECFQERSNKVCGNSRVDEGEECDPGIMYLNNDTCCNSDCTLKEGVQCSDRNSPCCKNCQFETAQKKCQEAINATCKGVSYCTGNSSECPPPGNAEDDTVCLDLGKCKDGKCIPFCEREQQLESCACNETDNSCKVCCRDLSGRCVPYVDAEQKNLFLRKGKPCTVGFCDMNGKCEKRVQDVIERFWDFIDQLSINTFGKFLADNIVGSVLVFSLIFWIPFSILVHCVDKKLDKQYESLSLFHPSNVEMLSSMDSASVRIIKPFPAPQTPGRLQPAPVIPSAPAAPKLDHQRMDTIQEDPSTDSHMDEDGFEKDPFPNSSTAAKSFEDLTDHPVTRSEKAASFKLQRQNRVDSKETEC

[7] = biological target: Cytochrome P450 3A4 (Homo sapiens, UniProt P08684); assay: Inhibition of CYP3A4; format: ADME
Cytochrome P450 3A4, sequence (P08684 whole entry): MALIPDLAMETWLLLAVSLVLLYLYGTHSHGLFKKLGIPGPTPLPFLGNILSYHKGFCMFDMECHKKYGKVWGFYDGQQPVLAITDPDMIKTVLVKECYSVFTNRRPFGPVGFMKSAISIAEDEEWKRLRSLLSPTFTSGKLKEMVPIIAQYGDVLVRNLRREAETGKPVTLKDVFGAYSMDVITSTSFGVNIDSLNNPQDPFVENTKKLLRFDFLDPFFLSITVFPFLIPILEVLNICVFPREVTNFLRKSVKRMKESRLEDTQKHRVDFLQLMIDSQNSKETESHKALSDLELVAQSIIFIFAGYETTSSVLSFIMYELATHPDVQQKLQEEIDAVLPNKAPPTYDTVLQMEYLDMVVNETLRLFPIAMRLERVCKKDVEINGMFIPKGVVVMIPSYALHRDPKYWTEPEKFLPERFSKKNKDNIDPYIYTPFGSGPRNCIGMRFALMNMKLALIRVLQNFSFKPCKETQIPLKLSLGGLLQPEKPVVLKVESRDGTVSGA

[8] = biological target: Voltage-gated inwardly rectifying potassium channel KCNH2 (Homo sapiens, UniProt Q12809); assay: Inhibition of human ERG
Voltage-gated inwardly rectifying potassium channel KCNH2, sequence (Q12809 whole entry): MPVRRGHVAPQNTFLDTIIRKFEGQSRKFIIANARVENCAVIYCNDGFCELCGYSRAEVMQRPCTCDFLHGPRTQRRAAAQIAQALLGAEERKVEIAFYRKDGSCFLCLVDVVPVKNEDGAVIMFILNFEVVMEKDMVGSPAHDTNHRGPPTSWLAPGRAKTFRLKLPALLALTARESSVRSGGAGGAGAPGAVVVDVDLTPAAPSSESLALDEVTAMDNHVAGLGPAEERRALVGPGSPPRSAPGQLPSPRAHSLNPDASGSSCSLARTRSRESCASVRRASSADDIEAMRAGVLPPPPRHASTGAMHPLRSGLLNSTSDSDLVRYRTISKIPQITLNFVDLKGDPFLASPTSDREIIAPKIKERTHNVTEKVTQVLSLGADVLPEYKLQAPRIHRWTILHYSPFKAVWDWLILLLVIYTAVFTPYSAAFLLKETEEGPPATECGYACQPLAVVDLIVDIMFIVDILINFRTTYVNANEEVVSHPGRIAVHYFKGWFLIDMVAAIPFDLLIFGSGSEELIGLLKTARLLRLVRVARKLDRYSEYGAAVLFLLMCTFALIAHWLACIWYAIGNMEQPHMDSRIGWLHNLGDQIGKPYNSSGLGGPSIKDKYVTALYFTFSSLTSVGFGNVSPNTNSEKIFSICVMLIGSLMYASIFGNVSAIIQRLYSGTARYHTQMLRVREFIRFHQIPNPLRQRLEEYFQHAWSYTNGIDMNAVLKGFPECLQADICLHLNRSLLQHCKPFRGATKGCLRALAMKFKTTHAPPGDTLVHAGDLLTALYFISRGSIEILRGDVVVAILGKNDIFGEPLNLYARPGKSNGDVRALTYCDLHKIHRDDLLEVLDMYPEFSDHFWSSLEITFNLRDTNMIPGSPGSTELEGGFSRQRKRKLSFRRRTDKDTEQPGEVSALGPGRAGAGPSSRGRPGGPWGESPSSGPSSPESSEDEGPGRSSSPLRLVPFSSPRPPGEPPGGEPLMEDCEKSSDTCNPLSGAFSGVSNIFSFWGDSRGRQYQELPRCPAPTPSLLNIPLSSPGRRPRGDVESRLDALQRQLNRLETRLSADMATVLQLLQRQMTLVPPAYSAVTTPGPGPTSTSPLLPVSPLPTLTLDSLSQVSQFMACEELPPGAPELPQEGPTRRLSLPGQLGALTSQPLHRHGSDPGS

[9] = Clearance in Han Wistar rat at 2 mg/kg, iv by LC-MS/MS analysis; format: ADME, organism-based; design: dose 2 mg/kg, route intravenous; conditions: in vivo
[10] = Half life in Han Wistar rat at 2 mg/kg, iv and po by LC-MS/MS analysis; format: ADME, organism-based; design: dose 2 mg/kg, route oral; conditions: in vivo
[11] = Clearance in Beagle dog at 1 mg/kg, iv by LC-MS/MS analysis; format: ADME, organism-based, Canis lupus familiaris; design: dose 1 mg/kg, route intravenous; conditions: in vivo
[12] = test system: Rattus norvegicus; assay: Volume of distribution at steady state in Han Wistar rat at 2 mg/kg, iv and po by LC-MS/MS analysis; format: ADME, organism-based; design: dose 2 mg/kg, route oral; conditions: in vivo
[13] = test system: Canis familiaris; assay: Volume of distribution at steady state in Beagle dog at 1 mg/kg, iv and po by LC-MS/MS analysis; format: ADME, organism-based, Canis lupus familiaris; design: dose 1 mg/kg, route oral; conditions: in vivo
[14] = Oral bioavailability in Han Wistar rat at 2 mg/kg by LC-MS/MS analysis; format: ADME, organism-based; conditions: in vivo
[15] = Oral bioavailability in Beagle dog at 1 mg/kg by LC-MS/MS analysis; format: ADME, organism-based, Canis lupus familiaris; conditions: in vivo
[16] = Oral bioavailability in mouse by LC-MS/MS analysis; format: ADME, organism-based; conditions: in vivo
[17] = Inhibition of aggrecanase-mediated aggrecan degradation in IL-1-stimulated bovine nasal cartilage explant after 48 hrs by immunoblot method; format: tissue-based, Bos taurus
[18] = Inhibition of aggrecanase-mediated aggrecan degradation in IL-1 and oncostatin M-stimulated human knee osteoarthritic cartilage after 48 hrs by immunoblot method
[19] = Half life in Beagle dog at 1 mg/kg, iv and po by LC-MS/MS analysis; format: ADME, organism-based, Canis lupus familiaris; design: dose 1 mg/kg, route oral; conditions: in vivo
[20] = Intrinsic clearance in human liver microsomes
[21] = Intrinsic clearance in rat hepatocytes measured per 10^6 cells; format: ADME, cell-based, Liver, Hepatocyte
[22] = Oral bioavailability in Han Wistar rat at 3 to 10 mg/kg by LC-MS/MS analysis; format: ADME, organism-based; conditions: in vivo

72 kDa type IV collagenase, sequence (P08253 whole entry): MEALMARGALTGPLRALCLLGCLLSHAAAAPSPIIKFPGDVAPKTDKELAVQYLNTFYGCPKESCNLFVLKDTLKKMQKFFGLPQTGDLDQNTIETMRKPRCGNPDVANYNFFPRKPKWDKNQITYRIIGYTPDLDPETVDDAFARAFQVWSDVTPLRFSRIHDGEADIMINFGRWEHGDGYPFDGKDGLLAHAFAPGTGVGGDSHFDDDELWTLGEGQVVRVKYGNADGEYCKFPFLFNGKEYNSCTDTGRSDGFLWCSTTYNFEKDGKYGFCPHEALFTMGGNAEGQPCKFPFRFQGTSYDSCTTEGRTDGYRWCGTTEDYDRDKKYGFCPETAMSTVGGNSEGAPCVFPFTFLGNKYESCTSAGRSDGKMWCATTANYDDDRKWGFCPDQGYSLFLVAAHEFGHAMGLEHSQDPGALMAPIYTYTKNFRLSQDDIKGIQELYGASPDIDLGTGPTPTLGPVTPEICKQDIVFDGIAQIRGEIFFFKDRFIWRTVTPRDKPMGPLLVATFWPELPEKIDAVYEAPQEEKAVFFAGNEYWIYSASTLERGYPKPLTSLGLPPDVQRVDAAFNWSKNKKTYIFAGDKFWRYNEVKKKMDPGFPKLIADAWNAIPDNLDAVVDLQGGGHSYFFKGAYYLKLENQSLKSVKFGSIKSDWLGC

Row | pIC50 [1] | pIC50 [2] | pIC50 [3] | pIC50 [4] | pIC50 [5] | pIC50 [6] | SMILES | other results
1 | 6.77 | 9.32 | < 4.00 | 6.59 | 6.05 |  | C[C@@H](C[C@@](C)(CS(=O)(=O)N1CCC(CCc2ccc(C(F)(F)F)cc2Cl)CC1)N(O)C=O)c1ncc(F)cn1 | 
2 | 6.28 | 9.44 | < 5.07 | 6.43 | 6.44 |  | Cc1cc(Cl)ccc1CCC1CCN(S(=O)(=O)C[C@](C)(C[C@H](C)c2ncc(F)cn2)N(O)C=O)CC1 | 
3 | 6.92 | 9.74 | < 5.09 | 6.28 | 6.80 | 7.68 | Cc1cc(F)ccc1CCC1CCN(S(=O)(=O)C[C@](C)(C[C@H](C)c2ncc(F)cn2)N(O)C=O)CC1 | 
4 | 6.74 | 9.24 | < 4.15 | 6.46 | < 5.44 | 5.26 | C[C@@H](C[C@@](C)(CS(=O)(=O)N1CCC(CCc2ccc(S(C)(=O)=O)cc2Cl)CC1)N(O)C=O)c1ncc(F)cn1 | 
5 |  | 5.66 |  |  |  |  | C[C@@H](C[C@@](C)(CS(=O)(=O)N1CCC(NCc2ccc(Cl)cc2Cl)CC1)N(O)C=O)c1ncc(F)cn1 | 
6 |  | 8.96 |  |  |  |  | C[C@@H](C[C@@](C)(CS(=O)(=O)N1CCC(CCc2ccc(Cl)cc2Cl)CC1)N(O)C=O)c1ncc(F)cn1 | microsomal CLint [20]: 6.9 µL/min/mg; hepatocyte CLint [21]: 7.6 µL/min/1e6 cells; clearance [9]: 20 mL/min/kg; half-life [10]: 14.9 h; bioavailability [22]: 38%
7 | 5.77 | 9.32 | < 5.10 | 5.64 | 6.41 |  | C[C@@H](C[C@@](C)(CS(=O)(=O)N1CCC(CCc2ccc(F)cc2Br)CC1)N(O)C=O)c1ncc(F)cn1 | 
8 |  |  | < 5.00 | 6.37 | 6.37 |  | C[C@@H](C[C@@](C)(CS(=O)(=O)N1CCC(OCc2ccc(Cl)cc2Cl)CC1)N(O)C=O)c1ncc(F)cn1 | pIC50 [7]: < 5.00; pIC50 [8]: 5.10; microsomal CLint [20]: 107 µL/min/mg; hepatocyte CLint [21]: 56.9 µL/min/1e6 cells; clearance [9]: 130 mL/min/kg; half-life [10]: 0.3 h; bioavailability [22]: 0%
9 |  | 8.42 |  |  |  |  | C[C@@H](C[C@@](C)(CS(=O)(=O)N1CCN(CCc2ccc(Cl)cc2Cl)CC1)N(O)C=O)c1ncc(F)cn1 | microsomal CLint [20]: 54 µL/min/mg; hepatocyte CLint [21]: 10.2 µL/min/1e6 cells; clearance [9]: 14 mL/min/kg; half-life [10]: 5.6 h; bioavailability [22]: 30%
10 | 6.30 | 8.55 | < 5.02 | 6.24 | 7.25 |  | C[C@@H](C[C@@](C)(CS(=O)(=O)N1CCC(CCc2cc(F)ccc2Cl)CC1)N(O)C=O)c1ncc(F)cn1 | 

Further lines, the molecule ahead of its results:

Row | SMILES | pIC50 [1] | pIC50 [2] | pIC50 [3] | pIC50 [4] | pIC50 [5] | pIC50 [6] | other results
11 | C[C@@H](C[C@@](C)(CS(=O)(=O)N1CCC(CCc2ccc(C(F)(F)F)cc2C2CC2)CC1)N(O)C=O)c1ncc(F)cn1 | < 5.04 | 9.03 | < 5.00 | 4.77 | 4.74 | 5.49 | 
12 | Cc1cc(CCC2CCN(S(=O)(=O)C[C@](C)(C[C@H](C)c3ncc(F)cn3)N(O)C=O)CC2)c(C)cn1 | 4.92 | 9.37 | < 4.00 | 4.85 | 4.77 | 6.64 | 
13 | C[C@@H](C[C@@](C)(CS(=O)(=O)N1CCC(CCc2ccc(F)cc2C(F)(F)F)CC1)N(O)C=O)c1ncc(F)cn1 | 5.72 | 9.28 | 5.01 | 4.80 | 5.44 | 7.72 | 
14 | C[C@@H](C[C@@](C)(CS(=O)(=O)N1CCC(CCc2ncc(C(F)(F)F)cc2Cl)CC1)N(O)C=O)c1ncc(F)cn1 | 5.55 | 8.38 | < 4.15 | < 4.80 | < 4.74 | 4.57 | 
15 | Cc1cc(C(F)(F)F)ccc1CCC1CCN(S(=O)(=O)C[C@](C)(C[C@H](C)c2ncc(F)cn2)N(O)C=O)CC1 | 6.46 | 9.31 | < 5.00 | 5.64 | 5.34 | 6.38 | 
16 | C[C@@H](C[C@@H](CS(=O)(=O)N1CCC(OCc2ccc(Cl)cc2Cl)CC1)N(O)C=O)c1ncc(F)cn1 |  | 9.00 | 5.01 | 6.74 | 6.74 |  | 
17 | Cc1cc(CCC2CCN(S(=O)(=O)C[C@](C)(C[C@H](C)c3ncc(F)cn3)N(O)C=O)CC2)n(C)n1 | 4.59 | 8.27 | < 5.00 | 5.17 | 4.54 | 5.55 | 
18 | Cc1ccc(C)c(CCC2CCN(S(=O)(=O)C[C@](C)(C[C@H](C)c3ncc(F)cn3)N(O)C=O)CC2)c1 | 5.38 | 9.32 | < 5.00 | 4.64 | 5.38 | 7.66 | 
19 | C[C@@H](C[C@@](C)(CS(=O)(=O)N1CCN(c2ccc(F)cc2)CC1)N(O)C=O)c1ncc(F)cn1 |  | 8.14 | 6.01 | 8.12 | 8.12 |  | pIC50 [7]: < 5.00; pIC50 [8]: 4.68
20 | Cc1noc(C)c1CCC1CCN(S(=O)(=O)C[C@](C)(C[C@H](C)c2ncc(F)cn2)N(O)C=O)CC1 | < 5.20 |  | < 4.72 | < 5.09 | < 5.05 | 6.60 | clearance [9]: 11 mL/min/kg; half-life [10]: 11 h; clearance [11]: 20 mL/min/kg; Vdss [12]: 7.4 L/kg; Vdss [13]: 9.21 L/kg; bioavailability [14]: 3.5%; bioavailability [15]: 20%; bioavailability [16]: 34%; pIC50 [17]: 6.51; pIC50 [18]: 6.61; half-life [19]: 11.3 h
21 | Cc1cc(C)c(CCC2CCN(S(=O)(=O)C[C@](C)(C[C@H](C)c3ncc(F)cn3)N(O)C=O)CC2)cn1 | 5.66 | 9.17 | < 4.00 | < 5.35 | < 5.43 | 5.52 | 
22 | Cc1cnc(C)c(CCC2CCN(S(=O)(=O)C[C@](C)(C[C@H](C)c3ncc(F)cn3)N(O)C=O)CC2)c1 | 4.46 | 8.72 | 4.26 | 4.57 | < 5.10 | 5.85 | 
23 | Cc1nsc(C)c1CCC1CCN(S(=O)(=O)C[C@](C)(C[C@H](C)c2ncc(F)cn2)N(O)C=O)CC1 | 5.62 | 9.59 |  | 5.34 | 5.59 |  | 
24 | C[C@@H](C[C@@H](CS(=O)(=O)N1CCN(c2ccc(F)cc2)CC1)N(O)C=O)c1ncc(F)cn1 |  | 8.85 | < 5.96 | 7.96 | 7.96 |  | pIC50 [7]: 5.85; pIC50 [8]: 4.59
25 | Cc1cc(C(F)(F)F)cnc1CCC1CCN(S(=O)(=O)C[C@](C)(C[C@H](C)c2ncc(F)cn2)N(O)C=O)CC1 | 5.60 | 8.68 | < 4.10 | 5.21 | 4.40 | 4.62 | 
